Source: US7632506B2, “Identification of new NY-ESO-1 epitopes recognized by CD4+ T-cells” (Ludwig Institute for Cancer Research, priority 2005, dated 2009)

What was measured:
Format in all cases: cell-based, human
[1] = system: CD4+ T cell clones NW2337-CD4-1 and NW2337-CD4-10; assay: Peptide titration ELISPOT assay with overlapping NY-ESO-1 peptides; details: peptide 10 μM to 0.1 nM pulsed onto autologous EBV-B-cells
Method: The CD4^+ T cells were restimulated weekly with 1 μg/ml of the peptide being used. On day 12, each CD4^+ culture was assayed for NY-ESO-1 peptide recognition, using the ELISPOT assay of lager, et al., Proc. Natl. Acad. Sci. USA, 97(9):4760-4765 (2000), incorporated by reference. To elaborate on this procedure, flat-bottomed, 96-well nitrocellulose plates were coated with 5 μg/ml of anti-interferon-gamma antibody and incubated overnight at 4° C. After washing with PBS, plates were blocked with 10% human serum (HS) for 1 hour at 37° C. Depending on the effector:target ratio used, various numbers of presensitized CD4^+ T-cells were added to each well along with 5×10^4 autologous peptide pulsed EBV transfected B cells (“EBV-B cells”) serving as target cells and incubated for 16 hours at 37° C. in TCM without IL-2. Plates were then washed extensively (6 times with a solution of 0.05% Tween 20/PBS), and biotinylated anti-interferon-gamma detection antibody was added at a concentration of 0.5 μg/ml. After incubation for 2 h at 37° C., plates were washed and incubated with ABC-AP Vectastain for 1 hour. Plates were washed again and developed with substrate (BCIP/NPT) until blue spots were visible. The number of blue spots/well represented the proportion of NY-ESO-1 specific CD4^+ T-cells/well was finally counted under the microscope.
To further identify the exact epitope required for CD4^+ T cell recognition by these two CD4^+ T cell clones, a peptide titration assay was performed using overlapping NY-ESO-1 peptides (FIG. 2) at concentrations between 10 μM and 0.1 nM, pulsed onto autologous EBV-B-cells and tested in ELISPOT assays (FIG. 3).

[2] = system: CD4+ T cells; assay: IFN-γ ELISPOT of CD4+ T cells presensitized with overlapping NY-ESO-1 18 mer peptides; details: patient NW2337, limiting dilution
[3] = system: NW2337 CD4+ T cells; assay: Cytokine ELISPOT assays (IFNγ, TNFα, IL4, IL10) of NW2337 CD4+ T cells
From the text: All ELISPOT assay described, supra were designed to detect IFN-γ secretion by the T cell clones following specific antigen stimulation. To determine the phenotype of the NY-ESO-1 specific CD4^+ T cell clones from patient NW2337, additional ELISPOT assays were designed to detect additional cytokines.
The NW2337 CD4^+ T cells were stimulated with either NY-ESO-1 p49-66 and p55-72 peptides and T cells secretion of IFNγ, TNFα, IL4 and IL10measured by ELISPOT assay. […] IL4 and IL10 was not secreted by any of the NY-ESO-1 specific CD4^+ T-cell clones tested following stimulation with NY-ESO-1 p49-66 and p55-72 peptides.

P55-72: synthetic 18 mer peptide, amino acids 55-72 of NY-ESO-1 (GPGGGAPRGPHGGAASGL; UniProt P78358 55-72, looked up, fragment) [Peptide P55-72]
recognition by clone NW2337-CD4-1 [1]: recognized | recognition by clone NW2337-CD4-10 [1]: able to recognize | CD4+ T-cell clones generated by stimulation with peptide [2]: 53 | IFN-γ secretion by stimulated T cell clones [3]: produced | IL4 secretion by stimulated T cell clones [3]: not secreted | IL10 secretion by stimulated T cell clones [3]: not secreted | TNF-α secretion by stimulated T cell clones [3]: produced
